Laboratory results published in patent publication US7863267B2, “Use of selective chloride channel modulators to treat methamphetamine abuse” (priority 2003, dated 2011).
Like-named read-outs stand apart in the source and are kept apart here.

How the values were obtained:
[1] = excreted unchanged, not appreciably metabolized; cited from earlier work
[2] = cited from earlier work
alcoholics [3] = assay: CIWA-A withdrawal symptomatology before and after flumazenil in alcoholics; type: in vivo, human
From the text: (§1) 64 alcoholics (51 males and 13 females) voluntarily entered a treatment program to discontinue the use of alcohol. The patients were provided the appropriate information and the corresponding informed consent form was obtained from them. The patients were warned not to drink alcohol the morning on which the treatment was to be carried out to enable better evaluation of the withdrawal symptoms. Table 14 summarizes the characteristics of the patients treated associated with alcohol use.
(§2) Before starting the treatment, the patients underwent a complete medical and psychological examination. The monitoring of the patients throughout the morning included a complete blood count, a biochemical profile [creatinine, glucose, blood urea nitrogen (BUN), cholesterol (HDL and LDL), triglycerides, alkaline phosphatase, LDH (lactic dehydrogenase) and total proteins], hepatic function tests [GOT, GPT, GGT, bilirubin), electrocardiogram and, if need be, pregnancy test and x-ray examination. The exclusion criteria applied included acute or uncompensated illnesses, as well as the taking of any drug contraindicated with flumazenil. No patient was excluded after the pre-admission interview and the tests performed. Admission of one patient was postponed until their cardiac pathology was checked.
(§3) Before and after the administration of flumazenil, the withdrawal symptomatology was measured using the CIWA-A evaluation (Adinoff et al., Medical Toxicology 3:172-196 (1988)), as well as heart rate and blood pressure.
(§4) Flumazenil was administered at a dose of 0.2 mg every 3 minutes (up to a total of 2 mg/day). This quantity per dose was established to minimize the adverse side effects associated with withdrawal or interactions with other pharmaceuticals or psychopathologies.
(§5) Patients who presented marked anxiety were administered an additional dose of 192 mg of clomethiazole 30 minutes before administration of flumazenil.

alcoholics [4] = assay: Heart rate and blood pressure before and after flumazenil in alcoholics; type: in vivo, human; design: Heart rate: patients with a significant reduction / Diastolic blood pressure: patients with a significant reduction: concentration or dose not given beside the values
From the text: as §1, §2, §3, §4, §5

alcoholics [5] = assay: Adverse events during flumazenil administration in alcoholics; type: in vivo, human
From the text: as §1, §4, §5

alcoholics [6] = assay: Follow-up after flumazenil treatment programme (therapy, dropouts); type: in vivo, human
Protocol: Before discharge from the hospital, the following medications were prescribed: • Vitamin B complex: 1 month with one dose during breakfast and one dose during lunch. • Piracetam, or a medicament that is pharmacologically equivalent, 3 g for 1 week with one dose during breakfast and 800 mg for 1 month with one dose during breakfast and one dose during lunch; • Fluoxetine 20 mg for 2 months with one dose during breakfast; • Clomethiazole 192 mg for 1 week with one dose during breakfast and one dose during dinner and a subsequent elimination of dose during the second week; • Disulfuram 250 mg with one dose during breakfast.
As part of the treatment program, the patients were instructed to attend the outpatient treatment center for 9 months with decreasing frequency [once a week for the first three months, once every two weeks during the second three months, and once a month during the third three months].
Likewise, a semi-structured follow-up of cognitive behavior therapy was implemented. Individual and family psychotherapy was focused on 4 major interventions (cognitive restructuring, work therapy, prevention of relapse, and stress reduction) aimed at rehabilitating the social, family, work, personal and leisure life of the patient.
Table 16 statistically summarizes the results obtained before and after the treatment (at the end of 18 hours).

alcoholics [7] = assay: Clinical observations during hospitalization (appetite, sleep, anxiety, desire to drink); type: in vivo, human
From the text: as §1, §4

[8] = test system: alcoholics in the acute withdrawal phase; conditions: 2 mg IV for 1 minute, 8 alcoholics, cited from earlier work
[9] = test system: ethanol withdrawal syndrome; conditions: cited from earlier work
[10] = after first administration, 55 patients
[11] = after second administration, 58 patients
[12] = after first administration, 53 patients
[13] = after second administration, 55 patients
[14] = after second administration, 56 patients

NCC1(CC(=O)O)CCCCC1 [Gabapentin]
Elimination half-life [1]: 5 to 7 h

OCCOCCN1CCN(C(c2ccccc2)c2ccc(Cl)cc2)CC1 (centres unmarked) [Hydroxyzine]
Time to effects after oral administration [2]: 15 to 30 min

CCOC(=O)c1ncn2c1CN(C)C(=O)c1cc(F)ccc1-2 [flumazenil, ethyl 8-fluoro-5,6-dihydro-5-methyl-6-oxo-4H-imidazol[1,5-a][1,4]benzodiazepine-3-carboxylate]
CIWA-A scoring: patients with a significant reduction (alcoholics [3]; after first administration of flumazenil (0.2 mg every 3 min up to 2 mg/day), 55 patients): 47.3% | CIWA-A scoring: patients with a significant increase (alcoholics [3]; [10]): 12.7% | CIWA-A scoring: patients with no change (alcoholics [3]; [10]): 40.0% | CIWA-A scoring: patients with a significant increase (alcoholics [3]; [11]): 8.6% | CIWA-A scoring: patients with a significant reduction (alcoholics [3]; [11]): 36.2% | CIWA-A scoring: patients with no change (alcoholics [3]; [11]): 55.2% | CIWA-A mean after treatment (alcoholics [3]; after treatment (at the end of 18 hours), n=54, before treatment mean 4.13): .76 | Diastolic blood pressure: patients with a significant increase (alcoholics [4]; [12]): 18.9% | Diastolic blood pressure: patients with a significant reduction (alcoholics [4]; [12]): 34% | Diastolic blood pressure: patients with no change (alcoholics [4]; [12]): 47.2% | Systolic blood pressure: patients with a significant increase (alcoholics [4]; [12]): 15.1% | Systolic blood pressure: patients with a significant reduction (alcoholics [4]; [12]): 47.2% | Systolic blood pressure: patients with no change (alcoholics [4]; [12]): 37.7% | Heart rate: patients with a significant increase (alcoholics [4]; [10]): 9.1% | Heart rate: patients with a significant reduction (alcoholics [4]; [10]): 50.9% | Heart rate: patients with no change (alcoholics [4]; [10]): 40.0% | Heart rate: patients with a significant reduction (alcoholics [4]; [13]): 41.8% | Heart rate: patients with no change (alcoholics [4]; [13]): 58.2% | Diastolic blood pressure: patients with a significant increase (alcoholics [4]; [14]): 19.6% | Diastolic blood pressure: patients with a significant reduction (alcoholics [4]; [14]): 28.6% | Diastolic blood pressure: patients with no change (alcoholics [4]; [14]): 51.8% | Systolic blood pressure: patients with a significant increase (alcoholics [4]; [14]): 16.1% | Systolic blood pressure: patients with a significant reduction (alcoholics [4]; [14]): 28.6 | Systolic blood pressure: patients with no change (alcoholics [4]; [14]): 55.4% | Diastolic blood pressure mean after treatment (alcoholics [4]; after treatment (at the end of 18 hours), n=51, before treatment mean 86.27): 82.75 | Systolic blood pressure mean after treatment (alcoholics [4]; after treatment (at the end of 18 hours), n=51, before treatment mean 135.2): 126.67 | Heart rate mean after treatment (alcoholics [4]; after treatment (at the end of 18 hours), n=53, before treatment mean 81.42, in beats/min (unit assumed)): 75.02 | Patients who suffered headache during or immediately following administration (alcoholics [5]; disappeared after a few minutes or after metamizole magnesium): Approximately 10% | First administration of flumazenil interrupted and postponed to the following day (alcoholics [5]; of the 64 patients treated, increase in confusion, distal tremors or anxiety): 3 cases | Follow-up: Dropouts (alcoholics [6]; Month 1, N 43): 4.7% | Follow-up: Therapy and Disulfiram (alcoholics [6]; Month 1, N 43): 95.3% | Follow-up: Therapy without Disulfiram (alcoholics [6]; Month 1, N 43): 4.5% | Follow-up: Dropouts (alcoholics [6]; Month 3, N 22): 9.1% | Follow-up: Therapy and Disulfiram (alcoholics [6]; Month 3, N 22): 86.4% | Follow-up: Dropouts (alcoholics [6]; Month 6, N 12): 25% | Follow-up: Therapy and Disulfiram (alcoholics [6]; Month 6, N 12): 75% | Follow-up: Dropouts (alcoholics [6]; Month 9, N 8): 12.5% | Follow-up: Therapy and Disulfiram (alcoholics [6]; Month 9, N 8): 75% | Follow-up: Therapy without Disulfiram (alcoholics [6]; Month 9, N 8): 12.5% | Psychophysiological functions such as appetite and sleep (alcoholics [7]): regained very rapidly | Spontaneous verbal report from the majority of the patients (alcoholics [7]): absence of anxiety and of the desire to drink alcohol | Withdrawal symptoms after flumazenil ([8]; in other cases): the withdrawal symptoms disappeared but returned a few hours later | Withdrawal symptoms after flumazenil ([8]; in some cases, especially sweats and anxiety): immediate worsening of the withdrawal symptoms | Anxiogenic withdrawal effects (social interaction test, elevated plus maze) ([9]; rat models of the ethanol withdrawal syndrome): reverse anxiogenic withdrawal effects | Agitation and stereotyped behavior induced by withdrawal from long-term ethanol exposure ([9]; rats): prevent the agitation and stereotyped behavior
